The numbers were not newly measured in patent US7888378B2, “Thiadiazole compounds and uses thereof” (Mallinckrodt Inc., priority 2006, dated 2011), which cites them from elsewhere.

For this series, the system named is tumors. Particulars: after administering the substance.

Turning to `NCC(=O)CCC(=O)O` [delta-aminolevulinic acid], the “uptake of porphyrins in tumors compared to normal tissues” value is listed as “two-fold”.
